# From ChEMBL document CHEMBL1201862, “PubChem BioAssay data set” (2004)
# Activity calls are given as the source filed them.
# Experiments:
# Trypsin = Trypsin (Sus scrofa, UniProt P00761); test: trypsin protease activity blockade – biochemical, quenched peptide fluorescence, cherry-pick, selectivity assay for Rce1 protease inhibitor project, dose response (AID 488789)
# Bcl-2-like protein 10 = Bcl-2-like protein 10 (Homo sapiens, UniProt Q9HD36); test: Bcl-B/TR3 peptide binding disruption – biochemical, fluorescence polarization, FITC-TR3 peptide, selectivity assay for Bfl-1 inhibitor project, primary screen (AID 748);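 also: fluorescence polarization from a fluorescein-labelled TR3 peptide binding purified Bcl-B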
# Bcl-2-like protein 10, sequence (Q9HD36 whole entry): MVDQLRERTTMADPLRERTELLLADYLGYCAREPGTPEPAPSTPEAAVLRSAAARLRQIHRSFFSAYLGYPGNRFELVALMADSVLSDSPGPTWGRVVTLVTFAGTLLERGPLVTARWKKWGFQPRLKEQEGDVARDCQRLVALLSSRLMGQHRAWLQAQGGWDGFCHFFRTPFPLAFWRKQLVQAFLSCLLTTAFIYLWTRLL
# MDA-MB-435 = test: cells; format: functional, cell-based; conditions: Homo sapiens
# cells = format: functional, cell-based; conditions: PPC-1
# [1] = molecular target: NACHT, LRR and PYD domains-containing protein 3 (Homo sapiens, UniProt Q96P20); test: NALP3 inhibitors in yeast, dose response, luminescent (AID 488799); format: functional
# NACHT, LRR and PYD domains-containing protein 3, sequence (Q96P20 whole entry, the tested form may be a part): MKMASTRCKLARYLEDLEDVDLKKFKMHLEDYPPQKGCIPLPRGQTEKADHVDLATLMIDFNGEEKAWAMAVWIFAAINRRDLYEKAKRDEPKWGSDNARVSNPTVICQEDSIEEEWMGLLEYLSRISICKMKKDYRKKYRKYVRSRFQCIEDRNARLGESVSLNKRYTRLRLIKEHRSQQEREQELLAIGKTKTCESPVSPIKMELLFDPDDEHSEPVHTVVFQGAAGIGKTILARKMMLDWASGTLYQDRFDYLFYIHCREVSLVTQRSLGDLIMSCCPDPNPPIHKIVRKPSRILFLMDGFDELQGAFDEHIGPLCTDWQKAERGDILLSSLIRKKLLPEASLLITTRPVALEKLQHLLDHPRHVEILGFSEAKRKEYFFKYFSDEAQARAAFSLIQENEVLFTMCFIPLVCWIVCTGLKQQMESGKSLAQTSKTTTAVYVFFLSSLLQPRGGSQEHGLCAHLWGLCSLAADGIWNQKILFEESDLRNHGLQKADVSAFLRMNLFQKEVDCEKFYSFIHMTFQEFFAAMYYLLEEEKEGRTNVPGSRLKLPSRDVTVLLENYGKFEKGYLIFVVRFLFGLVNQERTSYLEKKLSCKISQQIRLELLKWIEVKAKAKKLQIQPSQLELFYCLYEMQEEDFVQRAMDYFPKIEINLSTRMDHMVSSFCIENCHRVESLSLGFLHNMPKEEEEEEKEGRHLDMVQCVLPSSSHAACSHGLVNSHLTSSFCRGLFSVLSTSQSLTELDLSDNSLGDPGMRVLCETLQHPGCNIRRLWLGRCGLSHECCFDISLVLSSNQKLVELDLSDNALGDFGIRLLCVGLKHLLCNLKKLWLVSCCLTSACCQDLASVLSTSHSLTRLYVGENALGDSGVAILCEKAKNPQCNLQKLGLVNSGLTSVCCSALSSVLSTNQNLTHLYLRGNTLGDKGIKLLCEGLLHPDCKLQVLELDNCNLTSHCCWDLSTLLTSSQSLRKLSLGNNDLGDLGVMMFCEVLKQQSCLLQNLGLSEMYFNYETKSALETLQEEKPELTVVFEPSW
# [2] = viability of PTEN-deleted HCT116 cells – cell-based, HCT116 PTEN knockout, dose response (AID 1047); format: functional;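 also: HCT116 colon tumor cells with PTEN knocked out; cells exposed to compound for 60 hours before readout; potency for loss of cell viability measured by luminescence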
# SUMO-activating enzyme [3] = molecular target: T1, SUMO-activating enzyme (Homo sapiens, UniProt Q9UBT2); test: blockers of SAE1/SAE2–UBC9 SUMO transfer – biochemical, HTRF, uHTS, primary screen (AID 2006); format: protein-complex assay
# T1 sequence (Q9UBE0 whole entry): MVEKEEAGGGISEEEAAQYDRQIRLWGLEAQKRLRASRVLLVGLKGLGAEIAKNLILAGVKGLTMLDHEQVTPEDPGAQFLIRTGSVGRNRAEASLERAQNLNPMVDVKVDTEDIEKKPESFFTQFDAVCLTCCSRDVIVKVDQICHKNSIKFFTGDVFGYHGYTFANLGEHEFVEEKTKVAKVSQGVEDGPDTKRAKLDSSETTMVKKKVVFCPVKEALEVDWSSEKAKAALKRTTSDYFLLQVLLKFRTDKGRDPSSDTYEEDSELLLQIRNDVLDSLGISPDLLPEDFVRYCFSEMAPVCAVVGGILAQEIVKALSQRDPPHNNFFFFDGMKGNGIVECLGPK
# T1 sequence (Q9UBT2 whole entry): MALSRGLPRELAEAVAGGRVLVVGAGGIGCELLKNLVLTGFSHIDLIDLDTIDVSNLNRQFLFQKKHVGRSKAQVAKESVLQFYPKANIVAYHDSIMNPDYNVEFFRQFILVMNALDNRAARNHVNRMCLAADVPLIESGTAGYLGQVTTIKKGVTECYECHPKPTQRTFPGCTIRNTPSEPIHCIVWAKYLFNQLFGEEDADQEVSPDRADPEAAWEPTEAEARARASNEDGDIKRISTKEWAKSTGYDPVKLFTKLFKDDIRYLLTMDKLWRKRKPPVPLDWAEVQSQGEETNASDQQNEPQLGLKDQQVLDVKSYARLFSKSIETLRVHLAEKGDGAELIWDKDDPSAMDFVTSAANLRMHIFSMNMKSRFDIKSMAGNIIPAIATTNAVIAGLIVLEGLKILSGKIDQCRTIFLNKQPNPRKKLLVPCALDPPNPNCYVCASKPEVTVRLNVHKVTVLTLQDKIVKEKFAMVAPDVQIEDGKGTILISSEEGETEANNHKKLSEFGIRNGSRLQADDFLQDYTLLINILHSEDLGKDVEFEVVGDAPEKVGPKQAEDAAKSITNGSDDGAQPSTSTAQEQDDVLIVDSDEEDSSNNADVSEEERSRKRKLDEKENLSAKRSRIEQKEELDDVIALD
# [4] = viability of HCT116 lacking mutant beta-catenin – cell-based, human colon tumor, dose response (AID 1045); format: functional;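 also: HCT116 colon tumor cells with beta catenin knocked out; cells exposed to compound for 60 hours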
# SUMO-activating enzyme [5] = molecular target: T1, SUMO-activating enzyme; test: blockers of UBC9-mediated SUMO conjugation – biochemical, AlphaScreen, SUMOylation inhibitor project, confirmation (AID 2018); format: functional
# Trypsin, sequence (P00761 whole entry): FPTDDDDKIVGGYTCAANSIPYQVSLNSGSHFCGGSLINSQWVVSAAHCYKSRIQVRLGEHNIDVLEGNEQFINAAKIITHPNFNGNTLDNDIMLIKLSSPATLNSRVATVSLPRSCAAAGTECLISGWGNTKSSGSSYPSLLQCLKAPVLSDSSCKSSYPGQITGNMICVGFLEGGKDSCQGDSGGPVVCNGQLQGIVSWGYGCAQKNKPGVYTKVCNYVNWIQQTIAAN
smiles,measurement,setting,value
CSC[C@H](NC(=O)COc1cc2c(c3oc(=O)cc(C)c13)CCC(C)(C)O2)C(=O)O,AC50,Trypsin,12 µM (active)
c1ccc(-c2nn3c(Cn4nnc5ccccc54)nnc3s2)nc1,IC50,Bcl-2-like protein 10,34.6 µM (active)
CCSc1cc(N2CCCC2)nc(-c2ccc(Cl)cc2)n1,IC50,MDA-MB-435,> 10 µM (inactive)
same,IC50,cells,> 10 µM (inactive)
O=C(Nc1scc(-c2ccccc2)c1C(=O)O)c1ccc(F)cc1,IC50,[1],10.3 µM (active)
O=C(/C=C/c1ccco1)NC(=S)Nc1cc(-c2nc3ccccc3s2)ccc1Cl,EC50,[2],7.86 µM (active)
same,IC50,SUMO-activating enzyme [3],26 µM (active)
same,EC50,[4],7.24 µM (active)
same,IC50,SUMO-activating enzyme [5],7.42 µM (active)
